# From BindingDB's records for doi:10.1016/j.bmcl.2009.05.085 (Targacept, 2009)
# Target: Neuronal acetylcholine receptor subunit alpha-7 (Mus musculus, UniProt P49582)
# Experiment: Displacement of [125I]alpha-bungarotoxin from alpha7 nAChR in C57BL/6J mouse hippocampal membrane
# Neuronal acetylcholine receptor subunit alpha-7, sequence (P49582 whole entry): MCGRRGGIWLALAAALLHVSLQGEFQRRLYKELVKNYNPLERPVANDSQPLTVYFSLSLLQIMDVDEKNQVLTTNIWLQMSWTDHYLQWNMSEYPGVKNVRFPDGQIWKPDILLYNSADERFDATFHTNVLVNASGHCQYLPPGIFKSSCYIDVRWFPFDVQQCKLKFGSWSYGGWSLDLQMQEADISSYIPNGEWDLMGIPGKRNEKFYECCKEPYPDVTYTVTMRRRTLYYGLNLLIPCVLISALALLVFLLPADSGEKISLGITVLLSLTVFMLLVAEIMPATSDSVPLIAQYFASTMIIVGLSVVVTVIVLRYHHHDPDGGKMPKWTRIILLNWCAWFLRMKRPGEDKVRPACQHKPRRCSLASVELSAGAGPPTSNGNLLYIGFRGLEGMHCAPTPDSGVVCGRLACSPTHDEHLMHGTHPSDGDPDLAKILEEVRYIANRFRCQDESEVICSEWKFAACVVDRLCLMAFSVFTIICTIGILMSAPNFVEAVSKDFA
compound,measurement,value
O=C(O)[C@@H](O)[C@H](O)[C@H](O)[C@@H](O)C(=O)O,Ki,> 10 µM
